Test results published in US9617256B2 (priority 2007, dated 2017).
In brackets after ≈: the same amount, converted by molar mass.

Assays:
AECO001 (ATCC25922) = experiment: MIC broth microdilution, AECO001; type: cell-based, E. coli; conditions: for MIC: Escherichia coli, ATCC25922, read-out: MIC AECO001
How it was run: (§1)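 Minimum inhibitory concentrations followed CLSI broth microdilution guidelines: cation-adjusted Mueller-Hinton broth, 2-fold serial drug dilutions, final inoculum 3×10^5–7×10^5 CFU/mL, ambient air at 35° C. for 18-24 hours. Quality-control strains and levofloxacin monitored performance.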

[1] = tested on: AECO063 (ATCC25922 bearing an acrAB mutation); experiment: microbe, parasite or virus in culture; type: cell-based, E. coli; conditions: for MIC: Escherichia coli, ATCC25922, read-out: MIC AECO063
How it was run: as §1

APAE001 (ATCC27853) = experiment: MIC broth microdilution, APAE001; type: cell-based, P. aeruginosa; conditions: for MIC: Pseudomonas aeruginosa, ATCC27853, read-out: MIC APAE001, APAE001 is ATCC27853
How it was run: as §1

[2] = tested on: APAE006 (strain of P. aeruginosa in which all efflux pumps are inactivated); experiment: microbe, parasite or virus in culture; type: cell-based; conditions: for MIC: Pseudomonas aeruginosa, read-out: MIC APAE006, P. aeruginosa, all efflux pumps inactivated
How it was run: (§2)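 CLSI broth microdilution in cation-adjusted Mueller-Hinton broth, final inoculum 3×10^5–7×10^5 CFU/mL, 2-fold drug dilutions, 18-24 hours at 35° C. in ambient air. APAE006 is an efflux-pump-inactivated P. aeruginosa strain. Assay performance monitored with QC strains and levofloxacin.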

[3] = tested on: APAE006 in the presence of 8 micrograms per milliliter of polymyxin B nonapeptide; type: cell-based, P. aeruginosa; conditions: in the presence of 8 micrograms per milliliter of polymyxin B nonapeptide
How it was run: as §2

[4] = tested on: AABA1060 (clinical isolate of Acinetobacter baumannii); experiment: MIC broth microdilution, AABA1060; type: cell-based; conditions: for MIC: Acinetobacter baumannii, read-out: MIC AABA1060
How it was run: as §1

[5] = tested on: ASAU001 (laboratory strain of S. aureus, ATCC29213); experiment: MIC broth microdilution, ASAU001; type: cell-based; conditions: for MIC: Staphylococcus aureus, ATCC29213, read-out: MIC ASAU001
How it was run: as §1

AECO001 HSA AGP = experiment: MIC broth microdilution, AECO001 HSA AGP; type: cell-based, E. coli; conditions: for MIC: Escherichia coli
How it was run: as §1

Row | Compound | MIC (AECO001 (ATCC25922)) [µg/mL] | MIC [1] [µg/mL] | MIC (APAE001 (ATCC27853)) [µg/mL] | MIC [2] [µg/mL] | MIC APAE006 + PMBN [3] | MIC [4] [µg/mL] | MIC [5] [µg/mL] | MIC (AECO001 HSA AGP) [µg/mL] | MIC AECO001 (AECO001 (ATCC25922); AECO001 is ATCC25922) | MIC AECO063 ([1]; ATCC25922 bearing an acrAB mutation) | MIC APAE001 (APAE001 (ATCC27853); APAE001 is ATCC27853) | MIC APAE006 ([2]; P. aeruginosa, all efflux pumps inactivated) | MIC AABA1060 ([4]; clinical isolate of Acinetobacter baumannii) | MIC ASAU001 ([5]; S. aureus ATCC29213) | MIC AECO001 HSA AGP (AECO001 HSA AGP)
1 | C[C@@H](N)[C@H](NC(=O)c1ccc(C#Cc2ccc(CNCC3CCCO3)cc2)cc1)C(=O)NO (stereo partly shown) [Example 118-5] | 2 to 16 (≈ 4.44 to 35.5 µM) | < 2 | < 2 | < 2 | A (MIC's of 2.0 μg/mL or less = A) | 16 to 64 (≈ 35.5 to 142 µM) | > 64 | 2 to 16 (≈ 4.44 to 35.5 µM) |  |  |  |  |  |  | 
2 | C[C@@H](N)[C@H](NC(=O)c1ccc(/C=C/C#Cc2ccc(CN3CCS(=O)(=O)CC3)cc2)cc1)C(=O)NO [Example 113-8] |  |  |  |  | A (MIC's of 2.0 μg/mL or less = A) |  |  |  | A (MIC's of 2.0 μg/mL or less = A) | A (MIC's of 2.0 μg/mL or less = A) | B (MIC's of greater than 2.0 μg/mL to 16.0 μg/mL = B) | A (MIC's of 2.0 μg/mL or less = A) | A (MIC's of 2.0 μg/mL or less = A) | C (MIC's of greater than 16.0 μg/mL to 64.0 μg/mL = C) | B (MIC's of greater than 2.0 μg/mL to 16.0 μg/mL = B)
3 | C[C@@H](N)[C@H](NC(=O)c1ccc(C#CC#Cc2ccc(CNC3CC3)cc2)cc1)C(=O)NO [Example 86-3] | < 2 | < 2 | < 2 | < 2 | A (MIC's of 2.0 μg/mL or less = A) | 2 to 16 (≈ 4.65 to 37.2 µM) | 16 to 64 (≈ 37.2 to 149 µM) | < 2 |  |  |  |  |  |  | 
4 | O=C(N[C@H](C(=O)NO)C1CC1)c1ccc(/C=C/C#Cc2ccc(CN3CCOCC3)cc2)cc1 [Example 110-9] | < 2 | < 2 | 2 to 16 (≈ 4.35 to 34.8 µM) | < 2 | A (MIC's of 2.0 μg/mL or less = A) | 2 to 16 (≈ 4.35 to 34.8 µM) | > 64 | 2 to 16 (≈ 4.35 to 34.8 µM) |  |  |  |  |  |  | 
5 | Cn1cncc1C#CC#Cc1ccc(C(=O)N[C@H](C(=O)NO)C(C)(C)O)cc1 [Example 88-10] | < 2 | < 2 | 2 to 16 (≈ 5.26 to 42.1 µM) | < 2 | A (MIC's of 2.0 μg/mL or less = A) | 2 to 16 (≈ 5.26 to 42.1 µM) | 16 to 64 (≈ 42.1 to 168 µM) | 2 to 16 (≈ 5.26 to 42.1 µM) |  |  |  |  |  |  | 
6 | CNC(=O)[C@@H](NC(=O)c1ccc(C#Cc2ccc(CN3CCOCC3)cc2)cc1)[C@@H](C)N [Example 117-1, N-((1S,2R)-2-Amino-1-methylcarbamoyl-propyl)-4-(4-morpholin-4-ylmethyl-phenylethynyl)-benzamide] | > 64 | > 64 | > 64 | > 64 | D (MIC's of greater than 64.0 μg/mL = D) | > 64 | > 64 | > 64 |  |  |  |  |  |  | 
7 | O=C(N[C@H](C(=O)NO)C1CC1)c1ccc(C#Cc2ccc(CN3CCOCC3)cc2)cc1 [Example 68-6, N—((S)-cyclopropyl-hydroxycarbamoyl-methyl)-4-(4-morpholin-4-ylmethyl-phenylethynyl)-benzamide] | < 2 | < 2 | 2 to 16 (≈ 4.61 to 36.9 µM) | < 2 | A (MIC's of 2.0 μg/mL or less = A) | 16 to 64 (≈ 36.9 to 148 µM) | > 64 | 2 to 16 (≈ 4.61 to 36.9 µM) |  |  |  |  |  |  | 
8 | CC(C)(O)[C@H](NC(=O)c1ccc(C#C/C=C/c2ccccc2)cc1)C(=O)NO [Example 104-3] | < 2 | < 2 | < 2 | < 2 | A (MIC's of 2.0 μg/mL or less = A) | < 2 | 16 to 64 (≈ 42.3 to 169 µM) | 2 to 16 (≈ 5.29 to 42.3 µM) |  |  |  |  |  |  | 
9 | C[C@@H](N)[C@H](NC(=O)c1ccc(/C=C/C#Cc2ccccc2Cl)cc1)C(=O)NO [Example 114-5] | < 2 | < 2 | 2 to 16 (≈ 5.03 to 40.2 µM) | < 2 | A (MIC's of 2.0 μg/mL or less = A) | < 2 | 2 to 16 (≈ 5.03 to 40.2 µM) | 2 to 16 (≈ 5.03 to 40.2 µM) |  |  |  |  |  |  | 
10 | C[C@@H](O)[C@H](NC(=O)c1ccc(C#C/C=C/c2ccc(CO)cc2)cc1)C(=O)NO [Example 101-1, N-((1S,2R)-2-Hydroxy-1-hydroxycarbamoyl-propyl)-4-[(E)-4-(4-hydroxymethyl-phenyl)-but-3-en-1-ynyl]-benzamide] | < 2 | < 2 | 2 to 16 (≈ 5.07 to 40.6 µM) | < 2 | A (MIC's of 2.0 μg/mL or less = A) | 16 to 64 (≈ 40.6 to 162 µM) | 16 to 64 (≈ 40.6 to 162 µM) | 2 to 16 (≈ 5.07 to 40.6 µM) |  |  |  |  |  |  | 
11 | NC[C@H](NC(=O)c1ccc(/C=C/C#Cc2ccc(CNC3CC3)cc2)cc1)C(=O)NO [Example 113-1] | < 2 | < 2 | 2 to 16 (≈ 4.78 to 38.2 µM) | < 2 | A (MIC's of 2.0 μg/mL or less = A) | 16 to 64 (≈ 38.2 to 153 µM) | > 64 | 2 to 16 (≈ 4.78 to 38.2 µM) |  |  |  |  |  |  | 
